Results taken from patent publication US8974814B2, “Layered drug delivery polymer monofilament fibers” (California Institute of Technology, priority 2007, dated 2015).

Assays:
[1] = Levofloxacin stability on formulation at elevated temperature / autoclaving; format: physicochemical; conditions: HPLC, solution equilibrated at 60° C.
Description: Wet-spinning fibers from a solution of levofloxacin and PLGA results in a product that is porous with a rough surface (on the sub-micron length scale). The internal morphology of the fiber is consistent with fiber prepared in previous work via wet-spinning. (See, e.g., Gao, H., et al., Journal of Controlled Release 2007; 118(3):325-332, the disclosure of which is incorporated herein by reference.) The protuberances on the surface of the fiber are likely the result of the drug forming aggregates on the surface, and/or by the drug distorting the polymer matrix at the surface. Fiber B has larger more discrete protuberances relative to fibers A and C. This may be due to fiber B having suspended particles of drug present in the polymer solution before wet spinning. […] Fiber C was manufactured at an elevated temperature to absolutely assure total drug dissolution in the polymer/DMSO solution. […] (See e.g., Fujimoto, K., et al., Jpn J Pharmacol 1995; 69(4):443-445, the disclosure of which is incorporated herein by reference.)

[2] = Isothermal titration calorimetry of octanoic acid with cyclodextrin; format: binding; conditions: 1:1 complex, DPBS
Protocol: The binding energy between octanoic acid and -cyclodextrin (-CD) was determined by isothermal titration calorimetry. Briefly, solutions used of […]-CD and 0.2 M octanoic acid were made in DPBS. Ten injections of […] each of the octanoic acid solution were made into 1.37 ml of the cyclodextrin in a Microcal ITC unit. A 1:1 complex is formed with an equilibrium constant of 1900.

C[C@H]1COc2c(N3CCN(C)CC3)c(F)cc3c(=O)c(C(=O)O)cn1c23 [Levofloxacin, levofloxacin]
stability after formulation at higher temperatures [1]: no other peaks were observed in the HPLC chromatogram

CCCCCCCC(=O)O [octanoic acid]
equilibrium constant [2]: 1900
